Reference: ChEMBL document CHEMBL4406898, “Dual mode of binding of anti cancer drug epirubicin to G-quadruplex [d-(TTAGGGT)]4 containing human telomeric DNA sequence induces thermal stabilization” (Bioorg Med Chem, 2019)

How the values were obtained:
Quadruplex DNA [1] = assay: Binding affinity to human telomeric 7 G-quadruplex DNA assessed as binding constant Kb1; type: nucleic-acid assay
Quadruplex DNA [2] = assay: Binding affinity to human telomeric 7 G-quadruplex DNA assessed as binding constant Kb2; type: nucleic-acid assay
Albumin = Albumin (Homo sapiens, UniProt P02768); assay: Binding affinity to human serum albumin assessed as binding constant after 24 hrs by absorption spectroscopy; type: ADME; settings: isolated protein
Albumin, sequence (P02768 whole entry): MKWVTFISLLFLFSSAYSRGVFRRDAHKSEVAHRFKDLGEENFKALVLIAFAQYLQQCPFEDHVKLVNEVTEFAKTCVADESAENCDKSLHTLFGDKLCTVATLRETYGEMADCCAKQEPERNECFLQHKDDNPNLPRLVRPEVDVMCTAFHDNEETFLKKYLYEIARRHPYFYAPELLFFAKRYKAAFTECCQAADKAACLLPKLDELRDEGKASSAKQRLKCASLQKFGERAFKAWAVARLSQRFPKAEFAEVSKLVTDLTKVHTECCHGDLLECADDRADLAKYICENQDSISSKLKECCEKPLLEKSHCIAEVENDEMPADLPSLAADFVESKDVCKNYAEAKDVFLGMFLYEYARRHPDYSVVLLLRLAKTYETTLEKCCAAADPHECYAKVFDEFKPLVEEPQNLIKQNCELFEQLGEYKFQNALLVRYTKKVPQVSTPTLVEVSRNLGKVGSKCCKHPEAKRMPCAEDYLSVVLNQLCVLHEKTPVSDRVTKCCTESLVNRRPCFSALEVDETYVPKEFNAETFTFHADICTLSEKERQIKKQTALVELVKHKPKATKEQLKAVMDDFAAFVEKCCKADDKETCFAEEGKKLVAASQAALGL

Kb (Quadruplex DNA [1]): 1.1 ×10⁶ /M
Kb (Quadruplex DNA [2]): 0.6 ×10⁶ /M
Kb (Albumin): 3 ×10³ /M
Structure (SMILES): COc1cccc2c1C(=O)c1c(O)c3c(c(O)c1C2=O)C[C@@](O)(C(=O)CO)C[C@@H]3O[C@H]1C[C@H](N)[C@H](O)[C@H](C)O1.Cl [DOXORUBICIN HYDROCHLORIDE]
